In US11905284B2, “5,7-dihydro-pyrrolo-pyridine derivatives” (PFIZER INC., priority 2016, dated 2024):

Biological target: T1, Human M4 receptors (Homo sapiens, UniProt P08173)
T1 construct: expressed in transfected cells; host or cells: HEK293 cells with Promega GloSensor cAMP technology, stably expressing hM4
T1 sequence (P08173 1-479): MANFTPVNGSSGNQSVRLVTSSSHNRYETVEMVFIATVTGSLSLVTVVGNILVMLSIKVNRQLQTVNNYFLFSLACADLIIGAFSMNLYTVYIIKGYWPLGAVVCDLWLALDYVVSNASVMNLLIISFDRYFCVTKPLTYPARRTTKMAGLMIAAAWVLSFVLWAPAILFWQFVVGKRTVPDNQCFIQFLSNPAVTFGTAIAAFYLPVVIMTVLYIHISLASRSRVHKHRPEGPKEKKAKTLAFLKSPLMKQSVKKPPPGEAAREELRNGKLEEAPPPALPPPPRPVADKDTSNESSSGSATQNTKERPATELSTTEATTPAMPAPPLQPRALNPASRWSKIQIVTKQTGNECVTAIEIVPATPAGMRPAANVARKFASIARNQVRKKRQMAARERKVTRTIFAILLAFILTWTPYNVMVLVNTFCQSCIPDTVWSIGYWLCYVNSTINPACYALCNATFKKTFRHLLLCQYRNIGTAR
Assay: M4 PAM cAMP assay (GloSensor)
Format: cell-based
Conditions: for Emax: HEK293, read-out: M4 glosensor EC50 Mean Asymptote Maximum (%); for EC50 / M4 glosensor EC50 Mean Asymptote Maximum (%): HEK293 GloSensor cells expressing hM4, with EC20 acetylcholine and isoproterenol, geometric mean of 2-4 determinations unless otherwise indicated; for M4 glosensor EC50 Mean Asymptote Maximum (%): Emax = maximum asymptote of fitted dose response curve
Protocol: The M4 PAM binding affinity for the compounds of the present invention was determined utilizing the following biological assay(s):
The M4 cAMP assay was designed to determine the potency and efficacy of muscarinic positive allosteric modulators (PAMs). Human M4 receptors were stably expressed in Human embryonic kidney (HEK293) cells expressed with the Promega GloSensor™ cAMP technology.
HEK293 GloSensor cells expressing hM4 cells were cultured in growth media containing DMEM with 10% FBS, 1% Penicillin/Streptomycin, 500 μg/mL G418, 200 μg/mL Hygomycin B, and 1% Glutamax. […] Plates were incubated at 37 degrees C. and 5% CO2 for use after 24 hours.
Compound Preparation for Agonist Screen:
Each compound was tested at 10 concentrations in duplicate per experiment. Compound plates are spotted with 0.2 μL/well agonist at 400 times the final assay concentration. Positive and negative controls for the compound alone agonist response was 10 μM acetylcholine (Sigma #A2661) and DMSO, respectively. EC20 of acetylcholine was also used to define PAM activities.
Promega GloSensor™ reagent (Promega #E1291) had previously been aliquotted. […] Stock solution was mixed. Culture media in cell plates was discarded, then replaced with 40 μL/well pre-warmed equilibration media, then incubated in the dark at room temperature for 2 hours. During the incubation, stimulation media containing agonist and EC20 acetylcholine was prepared. […] Compounds are now 5 times the final assay concentration. The plate was mixed using a plate agitator. At the end of the 2 hour GloSensor™ incubation, add 10 μL of the CO2-independent media containing agonist, EC20 acetylcholine and isoproterenol to the cell plate. Cell plate was then incubated for 10 minutes at room temperature, and then read using an EnVision plate reader (Perkin Elmer).
Data was exported from the EnVision plate reader. The percent effect for each well was determined using the mean values for the positive and negative controls on each plate for each read, specifically 100*(compound−negative control)/(positive control−negative control). Dose response curves were fitted to the compound percent effect data using a 4-parameter logistic fit model. Data was reported as EC50 and Emax, with the Emax as the maximum asymptote of the fitted dose response curve.

## COCc1nc2c(c(C)c1Cl)CN(C(=O)CC1CN(c3ccnc(C(F)F)c3)C1)C2 [Example 47, 1-[3-chloro-2-(methoxymethyl)-4-methyl-5,7-dihydro-6H-pyrrolo[3,4-b]pyridin-6-yl]-2-{1-[2-(difluoromethyl)pyridin-4-yl]azetidin-3-yl}ethanone]
  Emax: 110%
  EC50: 2.19 nM

## Cc1nc2c(c(C)c1C)CN(C(=O)CC1CN(c3cccnc3)C1)C2 [Example 23, 2-[1-(pyridin-3-yl)azetidin-3-yl]-1-(2,3,4-trimethyl-5,7-dihydro-6H-pyrrolo[3,4-b]pyridin-6-yl)ethanone]
  Emax: 92.2%
  EC50: 6.23 nM

## Cc1cc(CO)nc2c1CN(C(=O)CC1CN(c3cccnc3)C1)C2 [Example 9, 1-[2-(Hydroxymethyl)-4-methyl-5,7-dihydro-6H-pyrrolo[3,4-b]pyridin-6-yl]-2-[1-(pyridin-3-yl)azetidin-3-yl]ethanone]
  Emax: 86.5%
  EC50: 17.2 nM

## Cc1nc2c(c(C)c1Cl)CN(C(=O)CC1CN(c3cccnc3)C1)C2 [Example 13, 1-(3-Chloro-2,4-dimethyl-5,7-dihydro-6H-pyrrolo[3,4-b]pyridin-6-yl)-2-[1-(pyridin-3-yl)azetidin-3-yl]ethanone]
  Emax: 101%
  EC50: 2.04 nM

## Cc1nc2c(c(C)c1Cl)CN(C(=O)CC1CN(c3nncs3)C1)C2 [Example 44, 1-(3-chloro-2,4-dimethyl-5,7-dihydro-6H-pyrrolo[3,4-b]pyridin-6-yl)-2-[1-(1,3,4-thiadiazol-2-yl)azetidin-3-yl]ethanone]
  Emax: 112%
  EC50: 16.8 nM

## COc1ccc(C#N)cc1N1CC(CC(=O)N2Cc3nc(C)cc(C)c3C2)C1 [Example 69, 3-{3-[2-(2,4-dimethyl-5,7-dihydro-6H-pyrrolo[3,4-b]pyridin-6-yl)-2-oxoethyl]azetidin-1-yl}-4-methoxybenzonitrile]
  Emax: 41.5%
  EC50: 1360 nM

## Cc1cc(C)c2c(n1)CN(C(=O)CC1CN(c3cc(NC(C)C)ncn3)C1)C2 [Example 42, 1-(2,4-dimethyl-5,7-dihydro-6H-pyrrolo[3,4-b]pyridin-6-yl)-2-{1-[6-(propan-2-ylamino)pyrimidin-4-yl]azetidin-3-yl}ethanone]
  Emax: 93.9%
  EC50: 5.05 nM

## COc1ccc(N2CC(CC(=O)N3Cc4nc(C)cc(C)c4C3)C2)cc1CC#N [Example 74, (5-{3-[2-(2,4-dimethyl-5,7-dihydro-6H-pyrrolo[3,4-b]pyridin-6-yl)-2-oxoethyl]azetidin-1-yl}-2-methoxyphenyl)acetonitrile]
  Emax: 84.4%
  EC50: 460 nM

## COc1nc2c(c(C)c1Cl)CN(C(=O)CC1CN(c3cncnc3)C1)C2 [Example 26, 1-(3-chloro-2-methoxy-4-methyl-5,7-dihydro-6H-pyrrolo[3,4-b]pyridin-6-yl)-2-[1-(pyrimidin-5-yl)azetidin-3-yl]ethanone]
  Emax: 117%
  EC50: 13.9 nM

## Cc1nc2c(c(C)c1C)CN(C(=O)C[C@@H]1C[C@H]1c1cccnc1)C2 (single isomer, unassigned) [Example 38, 2-[trans-2-(pyridin-3-yl)cyclopropyl]-1-(2,3,4-trimethyl-5,7-dihydro-6H-pyrrolo[3,4-b]pyridin-6-yl)ethanone]
  M4 glosensor EC50 Mean Asymptote Maximum (%): 111%
  EC50: 15.9 nM

## Cc1cc(C)c2c(n1)CN(C(=O)C[C@H]1C[C@@H]1c1ccc3cncnc3c1)C2 (racemic) [Example 76, 1-(2,4-dimethyl-5,7-dihydro-6H-pyrrolo[3,4-b]pyridin-6-yl)-2-[trans-2-(quinazolin-7-yl)cyclopropyl]ethanone]
  Emax: 45%
  EC50: 1400 nM

## Cc1nc2c(c(C)c1C)CN(C(=O)OC1CN(c3cccnc3)C1)C2 [Example 36, 1-(pyridin-3-yl)azetidin-3-yl 2,3,4-trimethyl-5,7-dihydro-6H-pyrrolo[3,4-b]pyridine-6-carboxylate]
  Emax: 93%
  EC50: 10.4 nM

## Cc1ccc([C@H]2C[C@@H]2CC(=O)N2Cc3nc(C)cc(C)c3C2)cn1 [Example 17, 1-(2,4-Dimethyl-5,7-dihydro-6H-pyrrolo[3,4-b]pyridin-6-yl)-2-[(1R,2S)-2-(6-methylpyridin-3-yl)cyclopropyl]ethanone]
  Emax: 107%
  EC50: 71.9 nM

## CCNc1nccc(N2CC(CC(=O)N3Cc4nc(C)cc(C)c4C3)C2)n1 [Example 41, 1-(2,4-dimethyl-5,7-dihydro-6H-pyrrolo[3,4-b]pyridin-6-yl)-2-{1-[2-(ethylamino)pyrimidin-4-yl]azetidin-3-yl}ethanone]
  Emax: 95.6%
  EC50: 7.35 nM

## Cc1nc2c(c(C)c1C)CN(C(=O)OC1CN(c3nncs3)C1)C2 [Example 65, 1-(1,3,4-thiadiazol-2-yl)azetidin-3-yl 2,3,4-trimethyl-5,7-dihydro-6H-pyrrolo[3,4-b]pyridine-6-carboxylate]
  Emax: 88.2%
  EC50: 62.6 nM

## Cc1cc(C)c2c(n1)CN(C(=O)CC1CN(c3cccnc3)C1)C2C (single isomer, unassigned) [Example 14, 2-[1-(Pyridin-3-yl)azetidin-3-yl]-1-(2,4,5-trimethyl-5,7-dihydro-6H-pyrrolo[3,4-b]pyridin-6-yl)ethanone]
  M4 glosensor EC50 Mean Asymptote Maximum (%): 62.5%
  EC50: 9080 nM

## Cc1cc(C)c2c(n1)CN(C(=O)CC1CN(c3ccc(C(=O)N(C)C)cc3)C1)C2 [Example 70, 4-{3-[2-(2,4-dimethyl-5,7-dihydro-6H-pyrrolo[3,4-b]pyridin-6-yl)-2-oxoethyl]azetidin-1-yl}-N,N-dimethylbenzamide]
  Emax: 95%
  EC50: 184 nM

## Cc1cc(C(F)F)nc2c1CN(C(=O)CC1CN(c3ccnc(C(F)(F)F)c3)C1)C2 [Example 6, 1-[2-(Difluoromethyl)-4-methyl-5,7-dihydro-6H-pyrrolo[3,4-b]pyridin-6-yl]-2-{1-[2-(trifluoromethyl)pyridin-4-yl]azetidin-3-yl}ethanone]
  Emax: 92.4%
  EC50: 9.75 nM

## Cc1c(C(F)F)nc2c(c1C)CN(C(=O)CC1CN(c3ccnc(C(F)F)c3)C1)C2 [Example 53, 1-[2-(difluoromethyl)-3,4-dimethyl-5,7-dihydro-6H-pyrrolo[3,4-b]pyridin-6-yl]-2-{1-[2-(difluoromethyl)pyridin-4-yl]azetidin-3-yl}ethanone]
  Emax: 104%
  EC50: 38.6 nM

## Cc1cc(C)c2c(n1)CN(C(=O)CC1Cc3ccccc3C1)C2 [Example 56, 2-(2,3-dihydro-1H-inden-2-yl)-1-(2,4-dimethyl-5,7-dihydro-6H-pyrrolo[3,4-b]pyridin-6-yl)ethanone]
  Emax: 71.8%
  EC50: 209 nM

## Cc1nc2c(c(C)c1Cl)CN(C(=O)CC1CN(c3ccnc(C(F)F)c3)C1)C2 [Example 12, 1-(3-Chloro-2,4-dimethyl-5,7-dihydro-6H-pyrrolo[3,4-b]pyridin-6-yl)-2-{1-[2-(difluoromethyl)pyridin-4-yl]azetidin-3-yl}ethanone]
  Emax: 119%
  EC50: 7.1 nM

## Cc1cc(CO)nc2c1CN(C(=O)CC1CN(c3ccncn3)C1)C2 [Example 24, 1-[2-(hydroxymethyl)-4-methyl-5,7-dihydro-6H-pyrrolo[3,4-b]pyridin-6-yl]-2-[1-(pyrimidin-4-yl)azetidin-3-yl]ethanone]
  Emax: 93.8%
  EC50: 31 nM

## COc1nc2c(c(C)c1Cl)CN(C(=O)CC1CN(c3cccnc3)C1)C2 [Example 22, 1-(3-chloro-2-methoxy-4-methyl-5,7-dihydro-6H-pyrrolo[3,4-b]pyridin-6-yl)-2-[1-(pyridin-3-yl)azetidin-3-yl]ethanone]
  Emax: 109%
  EC50: 4.82 nM

## Cc1cc(C)c2c(n1)CN(C(=O)CC1CN(c3ccc(C4(C)COC4)cc3)C1)C2 [Example 68, 1-(2,4-dimethyl-5,7-dihydro-6H-pyrrolo[3,4-b]pyridin-6-yl)-2-{1-[4-(3-methyloxetan-3-yl)phenyl]azetidin-3-yl}ethanone]
  Emax: 99.4%
  EC50: 485 nM
